From patent US8716288B2, “Composition comprising benproperine derivatives as active ingredients for preventing and treating angiogenesis-related diseases” (Korea Research Institute of Bioscience and Biotechnology, priority 2010, dated 2014)
Marks after values point to notes of the source that are not given here.

Key:
[1] = system: DLD-1 cell (human colorectal cancer cell line in which PRL-3 is over-expressed); experiment: In vitro cell migration, trans-well assay; assay type: cell-based; details: for inhibitory activity against cell migration for colorectal cancer cell line: DLD-1, compared with control sample of 0.1% DMSO, FIG. 4
Experimental: In order to analyze inhibitory activity against in vitro cell migration of the benproperine derivative according to the present invention, after DLD-1 cell (ATCC-CCL-221), which is the human colorectal cancer cell lines in which PRL-3, cancer metastasis-related genes, is over-expressed, was grown around by 90% on the culture plate containing RPMI medium, the medium was removed and the cell was washed with PBS. The washed cell was processed with trypsin-EDTA, cultured CO2 incubator at 37° C. for […], and then detached. The resultant cells in which 10% FBS-containing RPMI medium was added were collected in the falcon tube and the medium was removed by centrifugation. The process in which FBS-free RPMI medium were added in the obtained cells and the medium was removed by centrifugation was repeated twice. After the obtained cells in which FBS-free RPMI medium was added were suspended, the number of cells was counted using a hemocytometer.
The cells of 8×10^4 cells/200 μl were added to trans-wells which were placed on 24-well plates. FBS-free RPMI medium of 500 μl was added using the empty space where trans-wells were placed on well plates and cultured in a CO2 incubator at 37° C. for 12 to 16 hours. After the medium has been removed by placing trans-wells upside down on hand towel following culture, crystal violet of 500 μl (20% MeOH in 5 mg/ml) was added to each well of 24-well plates and trans-wells were put in a CO2 incubator for 30 minutes. Stained trans-wells were washed with PBS and placed upside down on hand towel so that the remaining solution was impregnated. Membrane was placed on the cover slip with the side where the cells didn't move facing upwards and wiped well with a cotton swab. The cover slip on whose edges nail polish was applied a little was put on a slide glass and fixed. The prepared sample was photographed with an inverted microscope (TE 300, Nikon, Japan) equipped with digital camera and the number of cells having moved was counted.
Inhibitory activity against cell migration of benproperine and pharmaceutically acceptable salt thereof in Formulas 2 to 4 according to the present invention was observed by the above method, and inhibition rate was calculated by the Mathematical Equation 1.
Wherein the control sample was observed by adding 0.1% dimethyl sulfoxide (DMSO) only without addition of the compound in the present invention.

[2] = system: vascular endothelial cell HUVECs; experiment: In vitro endothelial morphogenesis assay (tube formation on Matrigel); assay type: cell-based, human; details: 24 hours, FIG. 6
Experimental: Specifically, HUVECs (ATCC-CRL-2873) was brought into the starvation state by culturing in a serum-free medium overnight. Matrigel matrix (BD biosciences) of 0.2 ml was added in each well of 24-well plates and placed in the 37° C. incubator for 1 hour to coat the surface of well. 0.2 ml 2×10^4 cells prepared in the above were added to each well coated with Matrigel matrix and cultured in a CO2 incubator for 30 minutes. After culture, fresh medium containing benproperine of 1, 5, and 10 μM concentration was added in each well followed by the addition of 1% serum and cultured in a CO2 incubator for 24 hours. After culture, the degree of inhibitory activity against HUVECs tube formation of benproperine was observed under a microscope.

[3] = In vitro cell migration, trans-well assay; assay type: cell-based, human; details: 10 μM, A375P, FIG. 5
[4] = Acute toxicity experiment of oral administration to rats; details: rat, in vivo, 1000 mg/kg
Experimental: In order to identify the toxicity of benproperine and pharmaceutically acceptable salt thereof according to the present invention, acute toxicity experiment was performed with laboratory animal as the subject as follow.
After 6-week-old specific pathogen free (SPF) SD bred rats were divided into groups of 2 specimens, and were orally administered once with benproperine which was prepared in Reference Example 1 and dissolved in injectable distilled water with a dose of 1000 mg/kg.

[5] = system: B16F10 human melanoma cells; experiment: In vivo metastasis of cancer, melanoma cells inoculated to tail vein, lung colony count; set-up: species or system C57BL/6 mouse; details: 50 mg/kg intraperitoneally once a day, 14 times in total; for Inhibition rate (%) of metastasis: compared with control group, p < 0.001
Experimental: In order to analyze inhibitory activity against in vivo cell migration of benproperine according to the present invention, inhibitory activity against metastasis of cancer of benproperine was analyzed using tumor model where melanoma cells are transplanted.
Specifically, B16F10 […] melanoma cell line (ATCC-CRL-6475) was inoculated to DMEM (GIBCO, USA) medium containing 10% FBS (GIBCO, USA), and cultured at 5% CO2, 37° C. 7-week-old female specific pathogen free (SPF) C57BL/6 mouse was adapted to the laboratory environment by supplying enough antibiotic-free pellet feed (Samyang feed Inc., South Korea) and sterilized tap water, and then used in the experiment.
Cultured B16F10 […] melanoma cells were suspended in PBS 200 μl at the concentration of 2×10^6 cells/ml, and inoculated […] to tail vein of the above mouse using a 26 gauge needle. After 3 hours of inoculation, the mice were divided into two groups in which the control group treated with sterile distilled water and the experimental group was intraperitoneally administered with benproperine of 50 mg/kg once a day, 14 times in total. The administration continued for 13 consecutive days, and then stopped. On day after the administration, autopsy was performed to the mouse of each group to extract the lung, and the number of colonies of metastasized cancer cells (melanoma cells) was counted.

[6] = system: melanoma cell line B16F10; experiment: In vitro cell migration, trans-well assay; assay type: cell-based, mouse; details: 10 μM, B16F10, FIG. 5
[7] = system: pancreatic cancer cell line AsPc-1 cells; experiment: In vitro cell migration, trans-well assay; assay type: cell-based, human; details: 10 μM, AsPc-1, FIG. 5
[8] = system: DLD-1 cell (human colorectal cancer cell line in which PRL-3 is over-expressed); experiment: Cytotoxicity of benproperine, WST-1 assay; assay type: cell-based; details: DLD-1 cells, 48 hours, up to 10 μM, WST-1 absorbance at 450 nm, FIG. 2
Experimental: In order to examine the cytotoxicity of the benproperine derivative prepared in Reference Example 1, after DLD-1 cell (ATCC-CCL-221), which is the human colorectal cancer cell lines in which PRL-3 cancer metastasis-related genes is over-expressed, was cultured in the RPMI culture medium containing 10% fetal bovine serum (FBS) and maintained at 37° C., 5% CO2, the cell was detached using 0.05% trypsin-EDTA. 4×10^3 cells which were calculated by hemocytometer were inoculated in each well of 96-well plates medium containing 10% FBS, and cultured in 37° C. incubator containing 5% CO2. After 24 hours, the culture medium of each well was replaced with new medium containing control (0.1% DMSO) and benproperine in Formula 2, which was prepared in Reference Example 1, by concentration (5 to 10 μM) and replace it with a new medium, and was cultured in 37° C., 5% CO2 incubator for 48 hours. After WST-1 (Roche) of 10 μl was added in each well of the above plate followed by 2 hours of culture, absorbance was measured at 450 nm using ELISA reader (Bio-Rad).

[9] = Weight change in the AsPC-1 metastasis model (toxicity); assay type: in vivo, BALB/C nude mouse; details: 50 and 100 mg/kg orally, five times a week, total of 20 times, FIG. 7
Experimental: (§1) To be specific, the human-derived pancreatic cancer cell line AsPC-1 (adenocarcinoma; Pancrease cancer) had been stored frozen in liquid nitrogen and it was thawed and cultured in CO2 incubator (Form a, USA) with 5% CO2 at 37° C. Specific-pathogen-free (SPF) BALB/C nude mouse (orient, Korea) was used in this experiment.
The cultured cells were collected and diluted to a cell concentration of 5×10^6 cells/ml by adding serum free media. Then, the animal model was prepared by intravenous administration of 0.2 ml of the cell culture to each mouse. Subsequently, 5 mg/ml of benproperine phosphate (MD-164) (KRIBB, Korea) was prepared by dissolving it in 0.5% Tween80 and orally administered to the mouse at a dose of 10 ml/kg five times a week, for a total of 20 times.
First, in order to analyze the toxicity of benproperine phosphate, the weight of all test groups was measured prior to administration of the compound, three times a week during the test period.

[10] = system: human-derived pancreatic cancer cell line (AsPC-1); experiment: In vivo metastasis of cancer, AsPC-1 transplanted in caudal vein, bioluminescence imaging; set-up: species or system BALB/C nude mouse; details: 50 mg/kg orally, 28th day after drug administration, lung, FIG. 8
Source text: In order to examine the in vivo inhibitory activity of the salt of benproperine of the present invention against metastasis of cancer, the inhibitory activity of benproperine phosphate (MD-164) against metastasis of cancer and toxicity of the same were examined by using the animal model which was transplanted with human-derived pancreatic cancer cell line (AsPC-1) in caudal vein.
as §1, with “experiment. […]” for “experiment.”
Secondly, in order to establish an animal model of pulmonary metastases, luciferase stably expressing AsPC-1 cell line was transplanted into a tail vein of mouse at a dose of 1×10^6 cells/mouse. […] The bioluminescence value was measured for equal area of each mouse subject, and the metastasis inhibition rate (%) in the group administered with benproperine phosphate was determined compared to a control group by the Mathematical Equation 2.
On the 28th day after drug administration, the lung of animal model was collected, the number of colony was measured, and imaging signal (photone/s/sr) was also measured.

Compound: CC(COc1ccccc1Cc1ccccc1O)N1CCCCC1 (centres unmarked) [2-hydroxybenproperine]
- inhibitory activity against cell migration for colorectal cancer cell line [1]: inhibit effectively

Compound: CC(COc1ccccc1Cc1ccccc1)N1CCCC(O)C1 (centres unmarked) [3-hydroxybenproperine]
- inhibitory activity against cell migration for colorectal cancer cell line [1]: inhibit effectively

Compound: CC(COc1ccccc1Cc1ccccc1)N1CCCCC1 (centres unmarked) [benproperine]
- inhibition of tube formation of HUVECs ([2]; 10 μM, compared to DMSO-treated control group): significantly
- inhibition of tube formation of HUVECs ([2]; 1, 5 and 10 μM): concentration-dependent manner
- cell migration compared with DMSO-treated sample [3]: prominently inhibited
- LD50 ([4]; Sprague-Dawley (SD), rats, single oral administration, read-out: minimum lethal dose (LD50) for oral administration): > 1000 mg/kg
- clinical symptoms, death, or weight changes ([4]; po): not observed
- toxic change (hematological examination, biochemical examination of blood, autopsy) ([4]; po): no toxic change
- Inhibition rate (%) of metastasis [5]: 45.1%
- Inhibition rate (%) of metastasis ([5]; listed as Benproperine): 45.1* %
- Number of lung colony (average ± SD) ([5]; negative control 106 ± 23.3): 58.2 ± 25.8
- cell migration compared with DMSO-treated sample [6]: prominently inhibited
- cell migration compared with DMSO-treated sample ([1]; 10 μM, DLD-1, FIG. 5): prominently inhibited
- inhibitory activity against cell migration for colorectal cancer cell line [1]: inhibit effectively
- inhibition at 5 µM ([1]; Homo sapiens, 5 μM, DLD-1, control 0.1% DMSO, FIG. 3, read-out: inhibition of migration of colorectal cancer cell compared to control): > 80%
- inhibition at 10 µM ([1]; Homo sapiens, 10 μM, DLD-1, control 0.1% DMSO, FIG. 3, read-out: inhibition of migration of colorectal cancer cell compared to control): > 90%
- cell migration compared with DMSO-treated sample [7]: prominently inhibited
- cytotoxicity [8]: no cytotoxicity

Compound: benproperine phosphate
- weight loss in comparison to a control group [9]: no significant weight loss
- inhibition rate against metastasis compared to a control group [10]: 71.5%
